This is an account of results in patent US8119661B2, “Piperidine derivatives and their use as muscarinic receptor modulators” (AstraZeneca AB, priority 2007, dated 2012).

The target of one assay is T1, cloned human M2 receptor (Homo sapiens, UniProt P08172).
T1 construct: purchased Perkin-Elmer RBHM2M; host or cells: CHO cell membranes
T1 sequence (P08172 1-466): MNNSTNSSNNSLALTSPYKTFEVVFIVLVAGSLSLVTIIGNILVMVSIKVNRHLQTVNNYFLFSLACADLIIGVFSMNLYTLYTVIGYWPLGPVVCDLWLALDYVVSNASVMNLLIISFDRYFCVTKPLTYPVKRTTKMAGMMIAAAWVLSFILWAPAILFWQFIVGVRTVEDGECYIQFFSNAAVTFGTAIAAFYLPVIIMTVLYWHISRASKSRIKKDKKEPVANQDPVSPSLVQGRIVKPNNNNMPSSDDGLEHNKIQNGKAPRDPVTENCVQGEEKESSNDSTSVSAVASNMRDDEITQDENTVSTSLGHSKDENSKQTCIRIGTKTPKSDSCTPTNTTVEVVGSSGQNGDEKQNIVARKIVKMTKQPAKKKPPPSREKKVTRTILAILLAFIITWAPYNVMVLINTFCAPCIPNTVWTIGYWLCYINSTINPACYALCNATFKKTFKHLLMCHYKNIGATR
The experiment in a line: hM2 receptor GTPγS binding. Particulars: CHO membranes expressing hM2, [35S]GTPγS binding. It is filed as biochemical. The method, then:
Membranes produced from Chinese hamster ovary cells (CHO) expressing the cloned human M2 receptor (human Muscarinic receptor subtype 2, gene bank access NM_000739), are obtained from Perkin-Elmer (RBHM2M). The membranes are thawed at 37° C., passed 3 times through a 23-gauge blunt-end needle, diluted in the GTPγS binding buffer (50 mM Hepes, 20 mM NaOH, 100 mM NaCl, 1 mM EDTA, 5 mM MgCl2, pH 7.4, 100 μM DTT). The EC50, IC50 and Emax of the compounds of the invention are evaluated from 10-point dose-response curves (three fold concentration range) done in 60 μl in 384-well non-specific binding surface plate (Corning). Ten microliters from the dose-response curves plate (5× concentration) are transferred to another 384 well plate containing 25 μl of the following: 5 μg of hM2 membranes, 500 μg of Flashblue beads (Perkin-Elmer) and GDP 25 μM. An additional 15 μl containing 3.3× (60,000 dpm) of GTPγ^35S (0.4 nM final) are added to the wells resulting in a total well volume of 50 μl. Basal and maximal stimulated [^35S]GTPγS binding are determined in absence and presence of 30 μM final of acetylcholine agonist. The membranes/beads mix are pre-incubated for 15 minutes at room temperature with 25 μM GDP prior to distribution in plates (12.5 μM final). The reversal of acetylcholine-induced stimulation (2 μM final) of [^35S]GTPγS binding is used to assay the antagonist properties (IC50) of the compounds. The plates are incubated for 60 minutes at room temperature then centrifuged at 400 rpm for 5 minutes. The radioactivity (cpm) is counted in a Trilux (Perkin-Elmer).
(§1) Values of EC50, IC50 and Emax are obtained using sigmoidal fits of a non-linear curve-fitting program (XLfit version 4.2.2 Excel add-in version 4.2.2 build 18 math 1Q version 2.1.2 build 18) of percent stimulated [^35S]GTPγS binding vs. log(molar ligand). All pEC50 and pIC50 values are reported as arithmetic means±standard error of mean of ‘n’ independent experiments.
On the technique in general: Binding of GTPγS marks nucleotide exchange on a G protein.

The target of another assay is T2, cloned human M4 receptor (Homo sapiens, UniProt P08173).
T2 construct: purchased Perkin-Elmer RBHM4M; host or cells: CHO cell membranes
T2 sequence (P08173 1-479): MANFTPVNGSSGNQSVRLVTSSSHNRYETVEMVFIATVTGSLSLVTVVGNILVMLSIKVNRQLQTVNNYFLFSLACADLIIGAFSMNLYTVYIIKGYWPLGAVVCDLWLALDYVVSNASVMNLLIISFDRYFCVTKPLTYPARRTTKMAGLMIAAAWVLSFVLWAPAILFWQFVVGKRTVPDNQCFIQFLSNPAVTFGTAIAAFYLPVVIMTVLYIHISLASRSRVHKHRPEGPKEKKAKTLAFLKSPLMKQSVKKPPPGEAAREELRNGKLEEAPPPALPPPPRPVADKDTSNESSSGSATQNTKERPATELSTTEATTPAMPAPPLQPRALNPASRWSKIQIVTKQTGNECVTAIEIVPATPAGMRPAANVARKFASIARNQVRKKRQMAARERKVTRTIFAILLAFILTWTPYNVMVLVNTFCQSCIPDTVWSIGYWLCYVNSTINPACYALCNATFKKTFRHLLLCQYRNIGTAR
The experiment in a line: hM4 receptor GTPγS binding. It is filed as biochemical. Particulars: CHO membranes expressing hM4, [35S]GTPγS binding. As to the method:
Membranes produced from Chinese hamster ovary cells (CHO) expressing the cloned human M4 receptor (human Muscarinic receptor subtype 4, gene bank access NM_000741), are obtained from Perkin-Elmer (RBHM4M). The membranes are thawed at 37° C., passed 3 times through a 23-gauge blunt-end needle, diluted in the GTPγS binding buffer (50 mM Hepes, 20 mM NaOH, 100 mM NaCl, 1 mM EDTA, 5 mM MgCl2, pH 7.4, 100 μM DTT). The EC50, IC50 and Emax of the compounds of the invention are evaluated from 10-point dose-response curves (three fold concentration range) done in 60 μl in 384-well non-specific binding surface plate (Corning). Ten microliters from the dose-response curves plate (5× concentration) are transferred to another 384 well plate containing 25 μl of the following: 10 μg of hM4 membranes, 500 μg of Flashblue beads (Perkin-Elmer) and GDP 40 μM. An additional 15 μl containing 3.3× (60,000 dpm) of GTPγ^35S (0.4 nM final) are added to the wells resulting in a total well volume of 50 μl. Basal and maximal stimulated [^35S]GTPγS binding are determined in absence and presence of 30 μM final of acetylcholine agonist. The membranes/beads mix are pre-incubated for 15 minutes at room temperature with 40 μM GDP prior to distribution in plates (20 μM final). The reversal of acetylcholine-induced stimulation (10 μM final) of [^35S]GTPγS binding is used to assay the antagonist properties (IC50) of the compounds. The plates are incubated for 60 minutes at room temperature then centrifuged at 400 rpm for 5 minutes. The radioactivity (cpm) is counted in a Trilux (Perkin-Elmer).
as §1

Assay [1] has as its system SNL rats (heat hyperalgesia). As to the kind of experiment: Rat SNL heat hyperalgesia assay. It is filed as in vivo. Particulars: sc, male Sprague Dawley SNL rats, paw withdrawal latency, morphine s.c. 30 min before testing, example 2 per os 60 min before testing, combination ratio example 2:morphine 1:1.56.
Protocol: Rats undergo spinal nerve ligation surgery as described in Kim and Chung (1992) (reference 1). Briefly, rats are anesthetized with isoflurane, the left L5 and L6 are isolated and tightly ligated with 4-0 silk thread. The wound is closed by suturing and applying tissue adhesive. Compound testing is performed at day 9 to day 36 post-surgery.
For behavioral testing, the animals are acclimatized to the test room environment for a minimum of 30 min. In order to assess the degree of hyperalgesia, the animals are placed on a glass surface (maintained at 30° C.), and a heat-source is focused onto the plantar surface of the left paw. The time from the initiation of the heat until the animal withdraws the paw is recorded. Each animal is tested twice (with an interval of 10 min between the two tests). A decrease in Paw Withdrawal Latency (PWL, average of the two tests) relative to naïve animals indicates a hyperalgesic state. The rats with a PWL of at least 2 seconds less than average PWL of Naïve group are selected for compound testing. […]
In order to assess the degree of heat hyperalgesia, the rats were individually placed in Plexiglas boxes on the glass surface (maintained at 30° C.) of a paw thermal stimulator system (Model 390, series 8, IITC Life Science, Woodland Hills, USA) and allowed to acclimate for 30 min. […] Paw withdrawal latencies (PWLs) were calculated as the mean of the two values.

For orientation: EC50 means the concentration needed to bring the measured effect to its halfway point. The low end stands for a more potent agent, the high end for a less potent agent. For orientation: ED50 means the dose that gives a 50% effect, or the effect in half of the subjects. In the case of `CC(C)OC(=O)N1CCC(C)(N2CCC(N3C(=O)N[C@H]4CCCC[C@@H]43)CC2)CC1` [Example 02, Propan-2-yl 4-[4-[(3aS,7aS)-2-oxo-3a,4,5,6,7,7a-hexahydro-3H-benzoimidazol-1-yl]-1-piperidyl]-4-methyl-piperidine-1-carboxylate], the EC50 on cloned human M2 receptor was over 200 nM; on cloned human M4 receptor it was over 30000 nM. Further, the median effective dose (ED50) in assay [1] turned out to be 2.4 µmol/kg.

As to `CC1(N2CCC(N3C(=O)N[C@H]4CCCC[C@@H]43)CC2)CCN(C(=O)C2CC2)CC1` [Example 03, (3aS,7aS)-1-[1-[1-(cyclopropanecarbonyl)-4-methyl-4-piperidyl]-4-piperidyl]-3a,4,5,6,7,7a-hexahydro-3H-benzoimidazol-2-one], the concentration for a half-maximal effect (EC50) is over 1600 nM at cloned human M2 receptor and over 6500 nM at cloned human M4 receptor.

`CCOC(=O)N1CCC(C)(N2CCC(N3C(=O)N[C@H]4CCCC[C@@H]43)CC2)C1` (mixture of isomers) [Example 07, Ethyl 3-[4-[(3aS,7aS)-2-oxo-3a,4,5,6,7,7a-hexahydro-3H-benzoimidazol-1-yl]-1-piperidyl]-3-methyl-pyrrolidine-1-carboxylate]: the EC50 on cloned human M2 receptor was 2300 nM; on cloned human M4 receptor, over 21000 nM.

Turning to `CCOC(=O)N1CCC(C)(N2CCC(N3C(=O)N[C@@H]4CCCC[C@H]43)CC2)C1` (mixture of isomers) [Example 11, Ethyl 3-[4-[(3aR,7aR)-2-oxo-3a,4,5,6,7,7a-hexahydro-3H-benzoimidazol-1-yl]-1-piperidyl]-3-methyl-pyrrolidine-1-carboxylate], the results for the EC50 at cloned human M2 receptor and on cloned human M4 receptor were 2900 nM and over 30000 nM, respectively.

Turning to `CCOC(=O)N1CCC(C)(N2CCC(N3C(=O)N[C@H]4CCCC[C@@H]43)CC2)CC1` [Example 01, Ethyl 4-[4-[(3aS,7aS)-2-oxo-3a,4,5,6,7,7a-hexahydro-3H-benzoimidazol-1-yl]-1-piperidyl]-4-methyl-piperidine-1-carboxylate], the EC50 on cloned human M2 receptor is 45 nM; on cloned human M4 receptor, over 1200 nM.
